# Assay results as given in patent US20090320718A1, “FLUOROSURFACTANTS” (priority 2006, published 2009).
# Experiment: Determination of the surface tension (Kruss tensiometer K12, ring method)
# Type: physicochemical
# Conditions: for surface tension: measurement solutions in deionised water, 20° C.
# Protocol: • Instrument: Kruss tensiometer (model K12) • Temperature of the measurement solutions: 20° C. • Measurement module employed: ring • Concentration of the measurement solutions: about 0.5 to 3.0 g/l in deionised water
# Further details on the method are given in the European Commission publication: Classification, Packaging and Labelling of Dangerous Substances in the European Union, Part II-Test Methods, Annex V-Methods for Determining the Physical-Chemical Properties, the Toxicity and the Ecotoxicity, Part A, Surface Tension (A.5), January 1997, pages 51-57, and also the OECD Guideline for the Testing of Chemicals, Section 1, Physical-Chemical Properties, method 115, pages 1-7, adopted: 27.07.95, the contents of which in this respect are expressly part of the disclosure content of the present application.
molecule,measurement,setting,value
11-(S-trifluoromethyl)mercaptoundecane-1-sulfonic acid sodium salt [CF3—S—(CH2)11—SO3Na],surface tension,concentration: 99.8 mg/100 ml,31.29 mN/m
O=S(=O)([O-])CCCCCCCCCCCSCCC(F)(F)F.[Na+] [CF3—CH2—CH2—S—(CH2)11—SO3Na],surface tension,Concentration: 100.7 mg/100 ml,38.55 mN/m
"O=C(O)CCCCCCCCCCSCCC(F)(F)F [Example 5c, 11-(3,3,3-Trifluoropropylsulfanyl)undecanoic acid]",Surface tension of an aqueous solution of the sodium salt,"at 0.016 mol/l, sodium salt (2 eq of NaOH/eq of carboxylic acid)",33.4 mN/m
